In brackets after ≈: the same amount, converted by molar mass.
What was measured:
Micrococcus luteus [1] = test: Antibacterial activity against Micrococcus luteus assessed as growth inhibition at 1 mg/well after 24 hrs by Well method; format: functional
Aspergillus flavus [2] = test: Antifungal activity against Aspergillus flavus after 48 to 72 hrs by two fold serial dilution method; format: functional
Salmonella typhimurium [3] = test: Antibacterial activity against Salmonella typhimurium assessed as growth inhibition at 1 mg/well after 24 hrs by Well method; format: functional, Salmonella enterica subsp. enterica serovar Typhimurium
Shigella flexneri [4] = test: Antibacterial activity against Shigella flexneri assessed as growth inhibition at 1 mg/well after 24 hrs by Well method; format: functional
[5] = test system: Salmonella enterica subsp. enterica serovar Paratyphi B; test: Antibacterial activity against Salmonella paratyphi B after 24 hrs by two fold serial dilution method; format: functional
Bacillus subtilis [6] = test: Antibacterial activity against Bacillus subtilis after 24 hrs by two fold serial dilution method; format: functional
Klebsiella pneumoniae [7] = test: Antibacterial activity against Klebsiella pneumoniae assessed as growth inhibition at 1 mg/well after 24 hrs by Well method; format: functional
Klebsiella aerogenes [8] = test: Antibacterial activity against Enterobacter aerogenes after 24 hrs by two fold serial dilution method; format: functional
Staphylococcus aureus [9] = test: Antibacterial activity against methicillin-resistant Staphylococcus aureus after 24 hrs by two fold serial dilution method; format: functional
[10] = test system: Staphylococcus epidermidis; test: Antibacterial activity against Staphylococcus epidermidis after 24 hrs by two fold serial dilution method; format: functional
Salmonella typhimurium [11] = test: Antibacterial activity against Salmonella typhimurium after 24 hrs by two fold serial dilution method; format: functional, Salmonella enterica subsp. enterica serovar Typhimurium; settings: Salmonella enterica
Staphylococcus aureus [12] = test: Antibacterial activity against Staphylococcus aureus assessed as growth inhibition at 1 mg/well after 24 hrs by Well method; format: functional
Bacillus subtilis [13] = test: Antibacterial activity against Bacillus subtilis assessed as growth inhibition at 1 mg/well after 24 hrs by Well method; format: functional
Proteus vulgaris [14] = test: Antibacterial activity against Proteus vulgaris assessed as growth inhibition at 1 mg/well after 24 hrs by Well method; format: functional
Klebsiella pneumoniae [15] = test: Antibacterial activity against Klebsiella pneumoniae after 24 hrs by two fold serial dilution method; format: functional
Pseudomonas aeruginosa [16] = test: Antibacterial activity against Pseudomonas aeruginosa after 24 hrs by two fold serial dilution method; format: functional
Pseudomonas aeruginosa [17] = test: Antibacterial activity against Pseudomonas aeruginosa assessed as growth inhibition at 1 mg/well after 24 hrs by Well method; format: functional
Klebsiella aerogenes [18] = test: Antibacterial activity against Enterobacter aerogenes assessed as growth inhibition at 1 mg/well after 24 hrs by Well method; format: functional
Shigella flexneri [19] = test: Antibacterial activity against Shigella flexneri after 24 hrs by two fold serial dilution method; format: functional
Staphylococcus aureus [20] = test: Antibacterial activity against methicillin-resistant Staphylococcus aureus assessed as growth inhibition at 1 mg/well after 24 hrs by Well method; format: functional
Micrococcus luteus [21] = test: Antibacterial activity against Micrococcus luteus after 24 hrs by two fold serial dilution method; format: functional
Staphylococcus aureus [22] = test: Antibacterial activity against Staphylococcus aureus after 24 hrs by two fold serial dilution method; format: functional
Aspergillus flavus [23] = test: Antifungal activity against Aspergillus flavus assessed as growth inhibition at 1 mg/well after 48 hrs by Well method; format: functional
Proteus vulgaris [24] = test: Antibacterial activity against Proteus vulgaris after 24 hrs by two fold serial dilution method; format: functional
[25] = test system: Staphylococcus epidermidis; test: Antibacterial activity against Staphylococcus epidermidis assessed as growth inhibition at 1 mg/well after 24 hrs by Well method; format: functional
[26] = test system: Salmonella enterica subsp. enterica serovar Paratyphi B; test: Antibacterial activity against Salmonella paratyphi B assessed as growth inhibition at 1 mg/well after 24 hrs by Well method; format: functional
Malassezia pachydermatis [27] = test: Antifungal activity against Malassezia pachydermatis assessed as growth inhibition at 1 mg/well after 48 hrs by Well method; format: functional
Malassezia pachydermatis [28] = test: Antifungal activity against Malassezia pachydermatis after 48 to 72 hrs by two fold serial dilution method; format: functional
Candida albicans [29] = test: Antifungal activity against Candida albicans after 48 to 72 hrs by two fold serial dilution method; format: functional
Candida albicans [30] = test: Antifungal activity against Candida albicans assessed as growth inhibition at 1 mg/well after 48 hrs by Well method; format: functional

Row | Structure (SMILES) | inhibition zone (IZ) (Micrococcus luteus [1]) [mm] | inhibition zone (IZ) (Salmonella typhimurium [3]) [mm] | inhibition zone (IZ) (Shigella flexneri [4]) [mm] | MIC [5] [mg/L] | MIC (Bacillus subtilis [6]) [mg/L] | MIC (Klebsiella aerogenes [8]) [mg/L] | MIC (Staphylococcus aureus [9]) [mg/L] | MIC [10] [mg/L] | MIC (Salmonella typhimurium [11]) [mg/L] | inhibition zone (IZ) (Staphylococcus aureus [12]) [mm] | inhibition zone (IZ) (Bacillus subtilis [13]) [mm] | inhibition zone (IZ) (Proteus vulgaris [14]) [mm] | MIC (Pseudomonas aeruginosa [16]) [mg/L] | inhibition zone (IZ) (Pseudomonas aeruginosa [17]) [mm] | inhibition zone (IZ) (Klebsiella aerogenes [18]) [mm] | MIC (Shigella flexneri [19]) [mg/L] | inhibition zone (IZ) (Staphylococcus aureus [20]) [mm] | MIC (Micrococcus luteus [21]) [mg/L] | MIC (Staphylococcus aureus [22]) [mg/L] | MIC (Proteus vulgaris [24]) [mg/L] | further results
1 | COc1ccc(C(=O)CCN[C@@H](C)[C@H](O)c2ccccc2)cc1.Cl | 23 | 17 | 21 | 50 | 25 | 50 | 50 | 25 | 50 | 18 | 19 | 21 | 25 | 20 | 20 | 50 | 20 | 25 | 50 | 50 | MIC (Aspergillus flavus [2]): > 50 mg/L; inhibition zone (IZ) (Klebsiella pneumoniae [7]): 12 mm; MIC (Klebsiella pneumoniae [15]): > 50 mg/L; inhibition zone (IZ) (Aspergillus flavus [23]): 10 mm; inhibition zone (IZ) [25]: 22 mm; inhibition zone (IZ) [26]: 20 mm
2 | CN[C@@H]1[C@H](O[C@H]2[C@H](O[C@H]3[C@H](O)[C@@H](O)[C@H](N=C(N)N)[C@@H](O)[C@@H]3N=C(N)N)O[C@@H](C)[C@]2(O)C=O)O[C@@H](CO)[C@H](O)[C@H]1O [STREPTOMYCIN] | 26 | 24 | 30 | 30 (≈ 51.6 µM) | 25 (≈ 43 µM) | 25 (≈ 43 µM) | 6.25 (≈ 10.7 µM) | – | 6.25 (≈ 10.7 µM) | 14 | 22 | 30 | 25 (≈ 43 µM) | 30 | 22 | 6.25 (≈ 10.7 µM) | 30 | 6.25 (≈ 10.7 µM) | 6.25 (≈ 10.7 µM) | 6.25 (≈ 10.7 µM) | inhibition zone (IZ) (Klebsiella pneumoniae [7]): 20 mm; MIC (Klebsiella pneumoniae [15]): 25 mg/L (≈ 43 µM); inhibition zone (IZ) [26]: 18 mm
3 | C[C@@H](NCCC(=O)c1ccc(Cl)cc1Cl)[C@@H](O)c1ccccc1.Cl | 28 | 34 | 32 | 50 | 6.25 | 3.13 | 3.13 | 3.13 | 3.13 | 37 | 26 | 33 | 6.25 | 24 | 35 | 3.13 | 34 | 6.25 | 3.13 | 3.13 | inhibition zone (IZ) [25]: 34 mm; inhibition zone (IZ) [26]: 16 mm
4 | C[C@H](NCCC(=O)c1ccc(Cl)cc1)[C@H](O)c1ccccc1.Cl | 28 | 24 | 22 | > 50 | 25 | 50 | 25 | 25 | 50 | 26 | 19 | 25 | 25 | 20 | 25 | 25 | 29 | 50 | 50 | 25 | inhibition zone (IZ) (Malassezia pachydermatis [27]): 12 mm; MIC (Aspergillus flavus [2]): 50 mg/L; inhibition zone (IZ) (Klebsiella pneumoniae [7]): 11 mm; MIC (Klebsiella pneumoniae [15]): 50 mg/L; inhibition zone (IZ) (Aspergillus flavus [23]): 15 mm; inhibition zone (IZ) [25]: 28 mm
5 | C[C@H](NCCC(=O)c1cccc([N+](=O)[O-])c1)[C@H](O)c1ccccc1.Cl | 19 | 17 | 16 | > 50 | 50 | 50 | 50 | 50 | 50 | 15 | 15 | 18 | 50 | 16 | 16 | 50 | 15 | 50 | 50 | 50 | inhibition zone (IZ) (Malassezia pachydermatis [27]): 13 mm; MIC (Malassezia pachydermatis [28]): > 50 mg/L; MIC (Candida albicans [29]): > 50 mg/L; inhibition zone (IZ) [25]: 19 mm; inhibition zone (IZ) (Candida albicans [30]): 12 mm; inhibition zone (IZ) [26]: 12 mm

— ChEMBL document CHEMBL3616371, “Synthesis of BF₃ catalyzed Mannich derivatives with excellent ee from phenylpropanolamine, study of their antimicrobial activity and molecular docking” (2015)
